Tests used:
Assay in all cases: relative viability (nuclei count vs DMSO), 5 days (fraction); higher = more cells survive
BI-D1870 + Alpelisib = compound: CC(C)CCN1c2nc(Nc3cc(F)c(O)c(F)c3)ncc2N(C)C(=O)C1C [BI-D1870] + Cc1nc(NC(=O)N2CCC[C@H]2C(N)=O)sc1-c1ccnc(C(C)(C)C(F)(F)F)c1 [Alpelisib] (partner 2 µM)
How it was run: (§1)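 Lung cancer cell lines were pin-tool dosed in 1536-well plates on the day after seeding, with either a lone drug or a fixed anchor-drug dose plus five library-drug doses (not always all listed) in √10 steps. Nuclei were counted on 4× images after 5 days. Relative viability is the ratio of treated-well to vehicle-well nuclei counts, with each value a median of duplicate plates.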

BI-D1870 + Olaparib = compound: CC(C)CCN1c2nc(Nc3cc(F)c(O)c(F)c3)ncc2N(C)C(=O)C1C [BI-D1870] + O=C(c1cc(Cc2n[nH]c(=O)c3ccccc23)ccc1F)N1CCN(C(=O)C2CC2)CC1 [Olaparib] (partner 8 µM)
How it was run: as §1

Zebularine + Bortezomib = compound: O=c1ncccn1[C@@H]1O[C@H](CO)[C@@H](O)[C@H]1O [Zebularine] + CC(C)C[C@H](NC(=O)[C@H](Cc1ccccc1)NC(=O)c1cnccn1)B(O)O [Bortezomib] (partner 0.002 µM)
How it was run: as §1

Zebularine + Linsitinib = compound: O=c1ncccn1[C@@H]1O[C@H](CO)[C@@H](O)[C@H]1O [Zebularine] + C[C@]1(O)C[C@@H](c2nc(-c3ccc4ccc(-c5ccccc5)nc4c3)c3c(N)nccn32)C1 [Linsitinib] (partner 1 µM)
How it was run: as §1

Cell Line	relative viability (BI-D1870 + Alpelisib; first compound 0.04 µM)	relative viability (BI-D1870 + Alpelisib; first compound 0.1265 µM)	relative viability (BI-D1870 + Alpelisib; first compound 0.4 µM)	relative viability (BI-D1870 + Alpelisib; first compound 1.265 µM)	relative viability (BI-D1870 + Alpelisib; first compound 4 µM)	relative viability (BI-D1870 + Olaparib; first compound 0.04 µM)	relative viability (BI-D1870 + Olaparib; first compound 0.1265 µM)	relative viability (BI-D1870 + Olaparib; first compound 0.4 µM)	relative viability (BI-D1870 + Olaparib; first compound 1.265 µM)	relative viability (BI-D1870 + Olaparib; first compound 4 µM)	relative viability (Zebularine + Bortezomib; first compound 1 µM)	relative viability (Zebularine + Bortezomib; first compound 3.162 µM)	relative viability (Zebularine + Bortezomib; first compound 10 µM)	relative viability (Zebularine + Bortezomib; first compound 31.62 µM)	relative viability (Zebularine + Bortezomib; first compound 100 µM)	relative viability (Zebularine + Linsitinib; first compound 1 µM)	relative viability (Zebularine + Linsitinib; first compound 3.162 µM)	relative viability (Zebularine + Linsitinib; first compound 10 µM)	relative viability (Zebularine + Linsitinib; first compound 31.62 µM)	relative viability (Zebularine + Linsitinib; first compound 100 µM)
HCC-44	0.911	0.817	0.846	0.695	0.595	1	0.954	0.98	1.05	0.976	0.95	0.868	0.483	0.827	0.251	0.77	0.655	0.466	0.577	0.218
HCC-827	0.991	0.959	0.916	0.965	0.907	0.71	0.649	0.594	0.634	0.626	1.12	1.06	0.875	0.773	0.506	0.974	1.01	0.941	0.757	0.361
NCI-H2347	1.07	0.984	0.816	1.14	0.848	0.547	0.589	0.552	0.633	0.487	0.768	0.925	0.594	0.582	0.542	1.04	0.99	0.854	0.724	0.478
PC-14	1.15	0.882	0.913	0.837	0.862	0.364	0.251	0.273	0.197	0.138	1.05	0.743	0.147	0.115	0.0976	1.07	0.996	0.281	0.143	0.179
NCI-H1651	1.04	0.939	1	0.942	0.941	0.2	0.157	0.175	0.187	0.178	0.979	0.935	0.582	0.947	0.609	1	0.893		0.904	0.465
HARA	0.981	0.75	0.842	1.02	0.747	0.795	0.826	0.86	0.868	0.972	1.14	1.11		1.09	0.86	1.01	0.923		0.968	0.623
NCI-H1650						0.722	0.767	0.788	0.943	0.817	0.226	0.191		0.2	0.199					
NCI-H1395	1.56	1.04	1.11	1.05	1.08	0.448	0.436	0.429	0.489	0.406						1.03	1.09	0.869	0.653	0.533
LU99A	0.621	0.492	0.482	0.565	0.489	0.274	0.243	0.264	0.244	0.229	1.39	1.08	0.638	0.421	0.199	0.66	0.529	0.437	0.344	0.169
NCI-H1355	0.848	0.768	0.804	0.884	0.716	0.898	0.698	0.713	0.74	0.57	1.3	1.2	0.844	0.493	0.335	1	0.769	0.752	0.513	0.283
HCC-78	0.323	0.279	0.301	0.321	0.246	0.662	0.932	0.682	0.971	0.68	0.497	0.512	0.407	0.42	0.355	0.53	0.562	0.379	0.43	0.229
NCI-H1563	0.946	0.863	0.982	0.897	0.945						0.826	1.02	0.874	1.04	0.928	1.21	1.17	1.17	1.22	1.17
HCC-15	0.907	0.812	0.882	0.861	0.646	0.819	0.761	0.713	0.694	0.404	1.19	1.03	0.723	0.962	0.456	0.983	0.883	0.615	0.773	0.251
EKVX	0.957	0.759	0.85	0.898	0.664	0.916	0.789	0.805	0.969	0.721	1.27	1.05		0.88	1.06	1.16	1.01		1.15	0.979
NCI-H2087	1.15	1.05	1.09	1.23	0.877	0.708	0.519	0.572	0.563	0.564	0.977	0.747	0.512	0.662	0.321	1.11	1.09	0.501	0.67	0.29
LK-2	1.22	1.11	1.11	1.32	0.608	0.913	0.655	0.683	0.834	0.71						0.52	0.564	0.371	0.35	0.218
NCI-H1437	1.1	0.964	0.911	0.993	0.754	0.617	0.577	0.578	0.578	0.445	0.595	0.474		0.566	0.258	1.18	1.2		0.989	0.342

Cell Line	relative viability (BI-D1870 + Alpelisib; first compound 0.04 µM)	relative viability (BI-D1870 + Alpelisib; first compound 0.1265 µM)	relative viability (BI-D1870 + Alpelisib; first compound 0.4 µM)	relative viability (BI-D1870 + Alpelisib; first compound 1.265 µM)	relative viability (BI-D1870 + Alpelisib; first compound 4 µM)	relative viability (BI-D1870 + Olaparib; first compound 0.04 µM)	relative viability (BI-D1870 + Olaparib; first compound 0.1265 µM)	relative viability (BI-D1870 + Olaparib; first compound 0.4 µM)	relative viability (BI-D1870 + Olaparib; first compound 1.265 µM)	relative viability (BI-D1870 + Olaparib; first compound 4 µM)	relative viability (Zebularine + Bortezomib; first compound 1 µM)	relative viability (Zebularine + Bortezomib; first compound 3.162 µM)	relative viability (Zebularine + Bortezomib; first compound 10 µM)	relative viability (Zebularine + Bortezomib; first compound 31.62 µM)	relative viability (Zebularine + Bortezomib; first compound 100 µM)	relative viability (Zebularine + Linsitinib; first compound 1 µM)	relative viability (Zebularine + Linsitinib; first compound 3.162 µM)	relative viability (Zebularine + Linsitinib; first compound 10 µM)	relative viability (Zebularine + Linsitinib; first compound 31.62 µM)	relative viability (Zebularine + Linsitinib; first compound 100 µM)
COR-L23	0.978	0.731	0.875	0.722	0.449	0.315	0.325	0.327	0.35	0.245	0.928	1.13	0.363	0.318	0.251	0.977	1.05	0.448	0.493	0.211
ABC-1	1.18	0.972	1.12	1.19	0.829	0.751	0.782	1	0.613	0.666	0.295	0.248	0.249	0.275	0.349	0.678	0.713	0.572	0.544	0.481
NCI-H522						0.7	0.627	0.67	0.667	0.62										
NCI-H838	1.04	0.883	0.923	1.17	1.04	0.792	0.719	0.74	0.855	0.663	0.994	0.727	0.598	0.801	0.298	1.14	1.02	0.733	0.751	0.319
SW 900						0.826	0.765	0.711	0.733	0.964										
A549	0.907	0.639	0.891	0.609	0.477	0.382	0.382	0.268	0.379	0.399						0.741	0.635	0.304	0.716	0.279
A-427	1.13	1.02	0.992	1.12	1.16	0.71	0.647	0.659	0.705	0.551	1.12	0.899	0.665	0.381	0.247	1.12	1.08	0.855	0.513	0.256
NCI-H1792	0.724	0.677	0.641	0.736	0.538	0.434	0.334	0.369	0.812	0.315	0.989	0.932	0.369	0.382	0.359	0.571	0.441	0.541	0.267	0.296
ChaGo-K-1						0.451	0.379	0.414	0.412	0.303	1.27	0.982	0.558	0.678	0.284					
NCI-H358	0.964	0.745	0.852	0.663	0.415	0.685	0.548	0.592	0.485	0.35						0.796	0.822	0.469	0.516	0.26
NCI-H1944	0.907	0.803	0.817	0.927	0.861	0.455	0.412	0.368	0.398	0.367						1.34	1.14	0.979	1.19	0.784
NCI-H1648						0.919	0.691		0.633	0.846										
NCI-H2342						0.524	0.459	0.471	0.415	0.502										
SK-MES-1	0.956	0.859	0.78	0.973	0.644	0.77	0.561	0.731	0.363	0.19						1.15	1.14	0.78	0.567	0.299
NCI-H2170	0.867	0.705	0.818	0.751	0.772	0.707	0.605	0.575	0.587	0.448										
NCI-H1793	0.647	0.607	0.537	0.69	0.719	1.05	0.708	0.799	1.02	0.898						0.882	0.978	0.365	0.464	0.197
